The results in this text go back to US20090170788A1, “NOVEL USE OF 1, 2, 3, 4, 6-PENTA-O-GALLOYL-BETA-D-GLUCOSE” (priority 2006, published 2009).

Experiment [1] deals with albino SKH-1 hairless mice. The experiment can be described thus: Collagen formation/degradation after UV light in hairless mouse model (masson trichome staining). The experiment is classed as in vivo. As to conditions: UV B 10 weeks, topical 10 mg/200 μl/4 cm^2. The text has this: (§1) The mice of each of the groups were put in an UV box equipped with an UV B lamp, and were irradiated with UV light at a dose of 100 mJ/cm^2 corresponding to minimal erythemal dose (MED). UV light was irradiated one time a day, three times a week for 4 weeks while increasing the dose of UV light from 100 mJ/cm^2 at the first week to 200 mJ/cm^2 at the second week, 300 mJ/cm^2 at the third week and 400 mJ/cm^2 at the fourth week so as to adapt the mice to UV light. Following the fourth week, the mice were irradiated with UV light at a dose of 400 mJ/cm^2 for 6 weeks, and thus the hairless mice were exposed to UV light for a total of 10 weeks, thereby inducing skin photoaging. (Kilgman L H, Clin Dermatol 14:183-195, 1996). In the case of the test group, starting from 4 weeks after UV irradiation, a composition containing 1,2,3,4,6-penta-O-galloyl-beta-D-glucose was dissolved in a propylene glycol solution containing 30% ethanol (7:3 [v/v] propylene glycol:ethanol) and applied to the skin of the mice in an amount of 10 mg/200 μl/4 cm^2. In the case of the group treated with UV light alone, a composition containing no 1,2,3,4,6-penta-O-galloyl-beta-D-glucose was applied to the mice in an amount of 200 μl/4 cm^2 in the same manner as the test group. […]

The test system of experiment [2] is type I procollagen. The experiment can be described thus: Type I procollagen expression in skin of UV-irradiated hairless mice (immunohistochemistry). Type of experiment: in vivo, mouse. As to conditions: UV B 10 weeks, topical 10 mg/200 μl/4 cm^2.
Excerpt: as §1

The subject of experiment [3] is COX-2. Description: COX-2 protein expression (Western blot) in UV B-irradiated human keratinocytes (HaCaT). Type of experiment: cell-based. The conditions noted are these: HaCaT cells, UV B 10 mJ/cm^2, 1, 10, 30, 50 μM, 12 hours. As to the method: Human keratinocytes (HaCaT cell) provided by professor N. Fusenig (German Cancer Research, Germany) were seeded into a 100 mm culture dish to 1.3×10^6 cells, and then cultured in a DMEM medium containing 10% fetal bovine serum for 24 hours. After the culture, the cells were washed three times with phosphate buffered saline, and then irradiated with UV B in the following manner in order to induce skin aging. UV B was irradiated using an UV B lamp to a total energy dose of 10 mJ/cm^2 at a rate of 0.6 mW/cm^2/sec. Just after the UV irradiation, the cells were washed again with phosphate buffered saline, and 1,2,3,4,6-penta-O-galloyl-beta-D-glucose was added to a DMEM medium containing no fetal bovine serum at concentrations of 1, 10, 30, 50 μM. Then, the cells were further cultured in the medium for 12 hours. Test groups were divided as follows: After the 12-hr culture, the cells were washed with cold phosphate buffered saline, and then treated with lysis buffer to separate a cell protein. Then, the cell protein was subjected to Western blot analysis using a COX-2 antibody (Santa Cruz Biotch., USA) and a horseradish peroxidase-conjugated secondary antibody (ZYMED Laboratories, USA). As a loading control group, […] was used.

Experiment [4] concerns type I procollagen. Description: Type I procollagen expression (ELISA) in UV-irradiated human normal dermal fibroblasts. The experiment is classed as cell-based. The protocol:
(§2) Human normal dermal fibroblasts, which were isolated and cultured from the skin dermal layer cut from infant phimosis, were seeded into a 6-well plate at a density of 1×10^5 cells/well, and then cultured in 10% fetal bovine serum-containing DMEM (Dulbecco's modified Eagle's medium) for 24 hours. After the culture, the cells were washed three times with phosphate buffered saline (PBS) and then irradiated with UV A and […] in the following manner in order to induce skin aging. UV A was irradiated using a UV A lamp (Sankyo Denki FL8BL lamp, Sankyo Denki Co., Japan) to a total energy dose of 50 mJ/cm^2 at a rate of 27 mW/cm^2/sec, and UV B was irradiated using a UV B lamp (Sankyo Denki G9T5E lamp, Sankyo Denki Co., Japan) to a total energy dose of 170 mJ/cm^2 at a rate of 1.15 mW/cm^2/sec. […] In order to examine if the skin was aged after the culture, the expression levels of skin intercellular matrix component type I procollagen and its degradation enzyme MMP-1 were measured using a type I procollagen ELISA kit (Procollagen Type I C-Peptide EIA kit, TaKaRa, Japan) and a MMP-1 ELISA kit (MMP-1 human, ELISA system, Biotrak Assay, Amersham Biosciences, USA) according to manufacturer's protocols. […]
On the technique in general: An ELISA detects its analyte on a solid surface through an enzyme-linked reagent.

For experiment [5], the system named is MMP-1. Description: MMP-1 expression in skin of UV-irradiated hairless mice (immunohistochemistry). The experiment is classed as in vivo, mouse. As to conditions: UV B 10 weeks, topical 10 mg/200 μl/4 cm^2.
Excerpt: as §1

Experiment [6] has as its system albino SKH-1 hairless mice. The experiment can be described thus: Wrinkle formation caused by UV light in hairless mouse model (skin photographs, skin replica). The conditions noted are these: UV B 10 weeks, topical 10 mg/200 μl/4 cm^2 starting from 4 weeks after UV irradiation. Type of experiment: in vivo.
Excerpt: Whether 1,2,3,4,6-penta-O-galloyl-beta-D-glucose has the effect of inhibiting wrinkle formation caused by UV light was examined. First, 7-week-old female hairless mice (albino SKH-1 hairless mice, Hanlim Experimental Animal Co., Suwon, Korea) were divided into the following three groups, each consisting of 10 animals.
as §1, with “cm^2.” for “cm^2. In the case of the group treated with UV light alone, a composition containing no 1,2,3,4,6-penta-O-galloyl-beta-D-glucose was applied to the mice in an amount of 200 μl/4 cm^2 in the same manner as the test group.”

The subject of experiment [7] is albino SKH-1 hairless mice. Description: Epidermal thickening induced by UV light in hairless mouse model (H&E staining). Type of experiment: in vivo. The conditions noted are these: UV B 10 weeks, topical 10 mg/200 μl/4 cm^2.
Excerpt: as §1

Experiment [8] concerns MMP-1. The experiment can be described thus: MMP-1 expression (ELISA) in UV-irradiated human normal dermal fibroblasts. Type of experiment: cell-based. As to the method:
as §2

Setting [9] is: human normal dermal fibroblasts, UV A 50 mJ/cm^2 or UV B 170 mJ/cm^2, 1 and 10 μg/ml, 24 hours, concentration-dependent, vs UV light alone.
Where [10] appears, read: in vitro, UV-irradiated human skin fibroblasts, comparison with EGCG control group.

With `O=C(OC[C@H]1O[C@@H](OC(=O)c2cc(O)c(O)c(O)c2)[C@H](OC(=O)c2cc(O)c(O)c(O)c2)[C@@H](OC(=O)c2cc(O)c(O)c(O)c2)[C@@H]1OC(=O)c1cc(O)c(O)c(O)c1)c1cc(O)c(O)c(O)c1` [1,2,3,4,6-penta-O-galloyl-beta-D-glucose], in experiment [1], the amount of collagen result was “the amount of collagen was increased compared to the group treated with UV light alone” and the “amount of damaged collagen” value is listed as “the amount of damaged collagen was decreased”. For the same compound, the “expression of type I procollagen in skin tissue” value in experiment [2] is “the expression of type I procollagen was increased compared to the group treated with UV light alone”. Further, the “expression of COX-2” value in experiment [3] is listed as “reduced the expression of COX-2 in a concentration-dependent manner”. Besides, the “expression of type I procollagen” value in experiment [4] (setting [9]) was “an increase in the expression of type I procollagen”. Further, the “expression of type I procollagen compared to EGCG” value in experiment [4] (setting [10]) is “marked increase in the expression of type I procollagen compared to the case of treatment with EGCG”. Also, the “expression of MMP-1 in skin tissue” value in experiment [5] is recorded as “this increase in expression was inhibited”. Moreover, the “frequency of wrinkle formation” value in experiment [6] was “reduced the frequency of wrinkle formation”. Besides, in experiment [7], the “thickening of the skin epidermal layer” value was “the thickening of the skin epidermal layer was significantly decreased”. Moreover, in experiment [8] (setting [9]), the “expression of MMP-1” value is given as “a decrease in the expression of MMP-1”. For the same compound, in experiment [8] (setting [10]), the “inhibitory effect on MMP-1 compared to EGCG” value is on record as “much more superior to the MMP-1 inhibitory effect of EGCG”.
